How the values were obtained:
[1] = cn = amount concentration of the nth substance listed, in mol/dm3; details: 101 kPa, Liquid, Direct current cell with electrodes
[2] = osmotic coefficient (dimensionless); mn = molality of the nth substance listed, in mol/kg; details: Liquid, vapor pressure osmometry

CCCCCn1cc[n+](C)c1.[Cl-] [1-methyl-3-pentylimidazolium chloride] + O
Details	molar conductivity [S·m2/mol]	osmotic coefficient
[1], 298.15 K, c1 = 0.000693	0.00871	–
[1], 298.15 K, c1 = 0.001453	0.00866	–
[1], 298.15 K, c1 = 0.002097	0.00863	–
[1], 298.15 K, c1 = 0.002732	0.00862	–
[1], 298.15 K, c1 = 0.004637	0.0086	–
[1], 298.15 K, c1 = 0.006272	0.00858	–
[1], 298.15 K, c1 = 0.007754	0.00852	–
[1], 298.15 K, c1 = 0.01023	0.00841	–
[1], 298.15 K, c1 = 0.01283	0.00832	–
[1], 298.15 K, c1 = 0.01775	0.00817	–
[1], 298.15 K, c1 = 0.02186	0.00804	–
[1], 298.15 K, c1 = 0.02704	0.00793	–
[1], 298.15 K, c1 = 0.03205	0.00783	–
[1], 298.15 K, c1 = 0.0368	0.0078	–
[1], 298.15 K, c1 = 0.04132	0.00772	–
[1], 298.15 K, c1 = 0.04635	0.00763	–
[1], 298.15 K, c1 = 0.05182	0.00752	–
[1], 308.15 K, c1 = 0.000752	0.00993	–
[1], 308.15 K, c1 = 0.001643	0.00975	–
[1], 308.15 K, c1 = 0.002686	0.00964	–
[1], 308.15 K, c1 = 0.00347	0.00956	–
[1], 308.15 K, c1 = 0.004191	0.00959	–
[1], 308.15 K, c1 = 0.005081	0.00953	–
[1], 308.15 K, c1 = 0.006215	0.00945	–
[1], 308.15 K, c1 = 0.007646	0.00937	–
[1], 308.15 K, c1 = 0.009172	0.00927	–
[1], 308.15 K, c1 = 0.01102	0.00917	–
[1], 308.15 K, c1 = 0.01269	0.00912	–
[1], 308.15 K, c1 = 0.01447	0.00906	–
[1], 308.15 K, c1 = 0.01625	0.00902	–
[1], 308.15 K, c1 = 0.01799	0.00895	–
[1], 308.15 K, c1 = 0.01986	0.00889	–
[1], 308.15 K, c1 = 0.02253	0.00881	–
[1], 308.15 K, c1 = 0.02549	0.00873	–
[1], 308.15 K, c1 = 0.02884	0.00863	–
[1], 308.15 K, c1 = 0.03245	0.00856	–
[1], 308.15 K, c1 = 0.0363	0.00846	–
[1], 308.15 K, c1 = 0.04073	0.00837	–
[1], 308.15 K, c1 = 0.04603	0.0082	–
[1], 308.15 K, c1 = 0.04936	0.00814	–
[1], 318.15 K, c1 = 0.000273	0.0115	–
[1], 318.15 K, c1 = 0.000592	0.0114	–
[1], 318.15 K, c1 = 0.001207	0.0112	–
[1], 318.15 K, c1 = 0.002002	0.0111	–
[1], 318.15 K, c1 = 0.002757	0.011	–
[1], 318.15 K, c1 = 0.003483	0.0108	–
[1], 318.15 K, c1 = 0.004458	0.0107	–
[1], 318.15 K, c1 = 0.005601	0.0106	–
[1], 318.15 K, c1 = 0.007348	0.0105	–
[1], 318.15 K, c1 = 0.008904	0.0104	–
[1], 318.15 K, c1 = 0.01052	0.0103	–
[1], 318.15 K, c1 = 0.0124	0.0102	–
[1], 318.15 K, c1 = 0.01478	0.0101	–
[1], 318.15 K, c1 = 0.01661	0.01	–
[1], 318.15 K, c1 = 0.0196	0.00989	–
[1], 318.15 K, c1 = 0.02241	0.00978	–
[1], 318.15 K, c1 = 0.02545	0.00966	–
[1], 318.15 K, c1 = 0.02897	0.00953	–
[1], 318.15 K, c1 = 0.03318	0.00939	–
[1], 318.15 K, c1 = 0.03779	0.00924	–
[1], 328.15 K, c1 = 0.000588	0.0119	–
[1], 328.15 K, c1 = 0.001076	0.0118	–
[1], 328.15 K, c1 = 0.001612	0.0117	–
[1], 328.15 K, c1 = 0.002109	0.0116	–
[1], 328.15 K, c1 = 0.002949	0.0116	–
[1], 328.15 K, c1 = 0.003721	0.0116	–
[1], 328.15 K, c1 = 0.004608	0.0115	–
[1], 328.15 K, c1 = 0.005897	0.0113	–
[1], 328.15 K, c1 = 0.007087	0.0111	–
[1], 328.15 K, c1 = 0.008632	0.011	–
[1], 328.15 K, c1 = 0.01034	0.0108	–
[1], 328.15 K, c1 = 0.01229	0.0106	–
[1], 328.15 K, c1 = 0.01539	0.0105	–
[1], 328.15 K, c1 = 0.01788	0.0104	–
[1], 328.15 K, c1 = 0.02011	0.0103	–
[1], 328.15 K, c1 = 0.02273	0.0101	–
[2], 298.15 K, m1 = 0.014	–	0.931
[2], 298.15 K, m1 = 0.0263	–	0.889
[2], 298.15 K, m1 = 0.0391	–	0.882
[2], 298.15 K, m1 = 0.0518	–	0.871
[2], 298.15 K, m1 = 0.0634	–	0.863
[2], 298.15 K, m1 = 0.084	–	0.852
[2], 298.15 K, m1 = 0.1007	–	0.841
[2], 298.15 K, m1 = 0.1369	–	0.821
[2], 298.15 K, m1 = 0.1784	–	0.805
[2], 298.15 K, m1 = 0.2198	–	0.797
[2], 298.15 K, m1 = 0.2765	–	0.79
[2], 298.15 K, m1 = 0.3517	–	0.781
[2], 298.15 K, m1 = 0.4043	–	0.768
[2], 298.15 K, m1 = 0.5014	–	0.75
[2], 298.15 K, m1 = 0.5758	–	0.735
[2], 298.15 K, m1 = 0.8464	–	0.722
[2], 298.15 K, m1 = 1.002	–	0.71
[2], 298.15 K, m1 = 1.376	–	0.697
[2], 298.15 K, m1 = 1.797	–	0.687
[2], 308.15 K, m1 = 0.014	–	0.938
[2], 308.15 K, m1 = 0.0263	–	0.905
[2], 308.15 K, m1 = 0.0391	–	0.887
[2], 308.15 K, m1 = 0.0518	–	0.878
[2], 308.15 K, m1 = 0.0634	–	0.868
[2], 308.15 K, m1 = 0.084	–	0.858
[2], 308.15 K, m1 = 0.1007	–	0.845
[2], 308.15 K, m1 = 0.1369	–	0.829
[2], 308.15 K, m1 = 0.1784	–	0.812
[2], 308.15 K, m1 = 0.2198	–	0.803
[2], 308.15 K, m1 = 0.2765	–	0.795
[2], 308.15 K, m1 = 0.3517	–	0.788
[2], 308.15 K, m1 = 0.4043	–	0.78
[2], 308.15 K, m1 = 0.5014	–	0.753
[2], 308.15 K, m1 = 0.5758	–	0.742
[2], 308.15 K, m1 = 0.8464	–	0.726
[2], 308.15 K, m1 = 1.002	–	0.715
[2], 308.15 K, m1 = 1.376	–	0.704
[2], 308.15 K, m1 = 1.797	–	0.691
[2], 318.15 K, m1 = 0.014	–	0.941
[2], 318.15 K, m1 = 0.0263	–	0.911
[2], 318.15 K, m1 = 0.0391	–	0.903
[2], 318.15 K, m1 = 0.0518	–	0.885
[2], 318.15 K, m1 = 0.0634	–	0.878
[2], 318.15 K, m1 = 0.084	–	0.865
[2], 318.15 K, m1 = 0.1007	–	0.854
[2], 318.15 K, m1 = 0.1369	–	0.845
[2], 318.15 K, m1 = 0.1784	–	0.831
[2], 318.15 K, m1 = 0.2198	–	0.822
[2], 318.15 K, m1 = 0.2765	–	0.803
[2], 318.15 K, m1 = 0.3517	–	0.794
[2], 318.15 K, m1 = 0.4043	–	0.784
[2], 318.15 K, m1 = 0.5014	–	0.76
[2], 318.15 K, m1 = 0.5758	–	0.748
[2], 318.15 K, m1 = 0.8464	–	0.735
[2], 318.15 K, m1 = 1.002	–	0.723
[2], 318.15 K, m1 = 1.376	–	0.711
[2], 318.15 K, m1 = 1.797	–	0.697
[2], 328.15 K, m1 = 0.014	–	0.949
[2], 328.15 K, m1 = 0.0263	–	0.923
[2], 328.15 K, m1 = 0.0391	–	0.908
[2], 328.15 K, m1 = 0.0518	–	0.897
[2], 328.15 K, m1 = 0.0634	–	0.886
[2], 328.15 K, m1 = 0.084	–	0.87
[2], 328.15 K, m1 = 0.1007	–	0.866
[2], 328.15 K, m1 = 0.1369	–	0.849
[2], 328.15 K, m1 = 0.1784	–	0.837
[2], 328.15 K, m1 = 0.2198	–	0.828
[2], 328.15 K, m1 = 0.2765	–	0.809
[2], 328.15 K, m1 = 0.3517	–	0.799
[2], 328.15 K, m1 = 0.4043	–	0.79
[2], 328.15 K, m1 = 0.5014	–	0.771
[2], 328.15 K, m1 = 0.5758	–	0.756
[2], 328.15 K, m1 = 0.8464	–	0.739
[2], 328.15 K, m1 = 1.002	–	0.73
[2], 328.15 K, m1 = 1.376	–	0.718
[2], 328.15 K, m1 = 1.797	–	0.704

Reference: the NIST ThermoML archive (doi:10.1007/s10765-009-0566-6)
